Key:
yellow foxtail = assay: Postemergent control of plant species; format: in vivo, Setaria lutescens; conditions: Setaria, post-emergence, 336 h, read-out: percent postemergent control
Outline: (§1)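 Compounds were taken up in acetone at twice the final concentration, then diluted with an equal volume of water containing 0.1% surfactant and sprayed onto greenhouse-grown plants at the 2-4 leaf stage. Plants were kept about two weeks under growth conditions; control is growth reduction relative to untreated plants of the same species.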

sugar beet = assay: Postemergent control of plant species; format: in vivo, Beta saccharifera; conditions: Beta vulgaris, post-emergence, 336 h, read-out: percent postemergent control
Outline: as §1

yellow nutsedge [1] = assay: Control of aquatic plant species (paddy water); format: in vivo, Cyperus esculentus; conditions: Cyperus, 216 h; 2.0 Kg/Ha, nine days; read-out: Percent control
Outline: (§2)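 Seedlings at the 1-2 inch stage were transplanted into about 2 inches of soil and flooded to roughly 1 inch. An acetone concentrate of test chemical was injected into the paddy water, with the injected volume varied to set concentration. Percent control was rated nine days after application.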

rice [2] = assay: Postemergent control of plant species; format: in vivo, Oryza sativa; conditions: Oryza sativa, post-emergence, 336 h, read-out: percent postemergent control
Outline: as §1

crabgrass = assay: Postemergent control of plant species; format: in vivo, Digitaria spp.; conditions: Digitaria sanguinalis, post-emergence, 336 h, read-out: percent postemergent control
Outline: as §1

cotton = assay: Postemergent control of plant species; format: in vivo, Gossypium spp.; conditions: Gossypium hirsutum, post-emergence, 336 h, read-out: percent postemergent control
Outline: as §1

rape = assay: Postemergent control of plant species; format: in vivo, Brassica napus; conditions: Brassica napus, post-emergence, 336 h, read-out: percent postemergent control
Outline: as §1

wild oats = assay: Postemergent control of plant species; format: in vivo, Avena fatua; conditions: Avena fatua, post-emergence, 336 h, read-out: percent postemergent control
Outline: as §1

johnson grass = assay: Postemergent control of plant species; format: in vivo, Sorghum halepense; conditions: Sorghum halepense, post-emergence, 336 h, read-out: percent postemergent control
Outline: as §1

pigweed = assay: Postemergent control of plant species; format: in vivo, Amaranthus spp.; conditions: Amaranthus retroflexus, post-emergence, 336 h, read-out: percent postemergent control
Outline: as §1

sprangletop = assay: Control of aquatic plant species (paddy water); format: in vivo, Leptochloa filiformis; conditions: Leptochloa filiformis, 216 h; 2.0 Kg/Ha, nine days; read-out: Percent control
Outline: as §2

corn = assay: Postemergent control of plant species; format: in vivo, Zea mays; conditions: Zea mays, post-emergence, 336 h, read-out: percent postemergent control
Outline: as §1

velvetleaf = assay: Postemergent control of plant species; format: in vivo, Abutilon theophrasti; conditions: Abutilon theophrasti, post-emergence, 336 h, read-out: percent postemergent control
Outline: as §1

barnyardgrass [3] = assay: Control of aquatic plant species (paddy water); format: in vivo, Echinochloa crusgalli; conditions: Echinochloa crus-galli, 216 h; 2.0 Kg/Ha, nine days; read-out: Percent control
Protocol: In testing for such utility, the plant species to be tested were transplanted into 16 oz. containers into about 2 inches of soil when they were in the 1-2 inch stage and then flooded to a depth of about 1 inch. An acetone concentrate of the chemical to be tested was then injected into the paddy water, the volume injected being varied as desired to provide the desired concentration. Percent control was evaluated nine days after application.

cocklebur = assay: Postemergent control of plant species; format: in vivo, Xanthium spp.; conditions: Xanthium strumarium, post-emergence, 336 h, read-out: percent postemergent control
Outline: as §1

jimsonweed = assay: Postemergent control of plant species; format: in vivo, Datura stramonium; conditions: Datura stramonium, post-emergence, 336 h, read-out: percent postemergent control
Outline: as §1

[4] = tested on: nitrification of ammonium nitrogen; assay: Suppression of nitrification of ammonium nitrogen in soil; conditions: 27° C.
Outline: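 Value is % NH4-N remaining after a two-week, 27° C incubation of treated soil held at 1/3 bar tension moisture. Nitrate was measured with an ion-selective electrode after extraction with ammonium sulfate solution and 10 min shaking.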

rice [5] = assay: Control of aquatic plant species (paddy water); format: in vivo, Oryza sativa; conditions: Oryza sativa, 216 h; 2.0 Kg/Ha, nine days; read-out: Percent control
Outline: as §2

barnyardgrass [6] = assay: Postemergent control of plant species; format: in vivo, Echinochloa crusgalli; conditions: Echinochloa crus-galli, post-emergence, 336 h, read-out: percent postemergent control
Outline: as §1

soybean = assay: Postemergent control of plant species; format: in vivo, Glycine max.; conditions: Glycine max, post-emergence, 336 h, read-out: percent postemergent control
Outline: as §1

sorghum = assay: Postemergent control of plant species; format: in vivo, Sorghum vulgare; conditions: Sorghum, post-emergence, 336 h, read-out: percent postemergent control
Outline: as §1

wheat = assay: Postemergent control of plant species; format: in vivo, Triticum aestivum; conditions: Triticum aestivum, post-emergence, 336 h, read-out: percent postemergent control
Outline: as §1

annual morning glory = assay: Postemergent control of plant species; format: in vivo, Ipomoea spp.; conditions: Ipomoea, post-emergence, 336 h, read-out: percent postemergent control
Outline: as §1

yellow nutsedge [7] = assay: Postemergent control of plant species; format: in vivo, Cyperus esculentus; conditions: Cyperus, post-emergence, 336 h, read-out: percent postemergent control
Outline: as §1

Row | SMILES | pest or weed control at 500 ppm (yellow foxtail) [%] | plant injury at 500 ppm (sugar beet) [%] | pest or weed control at 2000 g/ha (yellow nutsedge [1]) [%] | plant injury at 500 ppm (rice [2]) [%] | pest or weed control at 500 ppm (crabgrass) [%] | plant injury at 500 ppm (cotton) [%] | plant injury at 500 ppm (rape) [%] | pest or weed control at 500 ppm (wild oats) [%] | pest or weed control at 500 ppm (johnson grass) [%] | pest or weed control at 500 ppm (pigweed) [%] | pest or weed control at 2000 g/ha (sprangletop) [%] | plant injury at 500 ppm (corn) [%] | pest or weed control at 500 ppm (velvetleaf) [%] | pest or weed control at 2000 g/ha (barnyardgrass [3]) [%] | pest or weed control at 500 ppm (cocklebur) [%] | pest or weed control at 500 ppm (jimsonweed) [%] | % NH4-N Remaining After 2 Weeks Incubation ([4]; 0.01 ppm) [%] | % NH4-N Remaining After 2 Weeks Incubation ([4]; 0.1 ppm) [%] | % NH4-N Remaining After 2 Weeks Incubation ([4]; 1 ppm) [%] | % NH4-N Remaining After 2 Weeks Incubation ([4]; 10 ppm) [%] | further results
1 | COc1ccccc1NS(=O)(=O)c1nc2nc(C)cc(C)n2n1 [Compound 4] | 0 | 70 | 80 | 40 | 20 | 10 | 40 | 0 | 80 | 0 | 45 | 0 | 60 | 95 | 40 | 60 | 0 | 0 | 38 | 71 | pest or weed control at 2000 g/ha (rice [5]): 90%; pest or weed control at 500 ppm (barnyardgrass [6]): 0%; plant injury at 500 ppm (soybean): 40%; plant injury at 500 ppm (sorghum): 40%; plant injury at 500 ppm (wheat): 0%; pest or weed control at 500 ppm (annual morning glory): 0%; pest or weed control at 500 ppm (yellow nutsedge [7]): 0%
2 | Cc1cc(C)n2nc(S(=O)(=O)Nc3ccccc3)nc2n1 [Compound 1] | 40 | 85 | 70 | 0 | 0 | 0 | 60 | 0 | 60 | 60 | 90 | 0 | 70 | 95 | 0 | 0 | 0 | 0 | 35 | 75 | pest or weed control at 2000 g/ha (rice [5]): 97%; pest or weed control at 500 ppm (barnyardgrass [6]): 15%; plant injury at 500 ppm (soybean): 30%; plant injury at 500 ppm (sorghum): 40%; plant injury at 500 ppm (wheat): 0%; pest or weed control at 500 ppm (annual morning glory): 0%; pest or weed control at 500 ppm (yellow nutsedge [7]): 0%
